Measurements published in ChEMBL document CHEMBL1157062, “Malyngolide dimer, a bioactive symmetric cyclodepside from the panamanian marine cyanobacterium Lyngbya majuscula” (J Nat Prod, 2010).

What was measured:
[1] = target: T1, NAD-dependent protein deacetylase sirtuin-2 (Homo sapiens) (UniProt Q8IXJ6); assay: Inhibition of SIRT2
T1 sequence (whole entry): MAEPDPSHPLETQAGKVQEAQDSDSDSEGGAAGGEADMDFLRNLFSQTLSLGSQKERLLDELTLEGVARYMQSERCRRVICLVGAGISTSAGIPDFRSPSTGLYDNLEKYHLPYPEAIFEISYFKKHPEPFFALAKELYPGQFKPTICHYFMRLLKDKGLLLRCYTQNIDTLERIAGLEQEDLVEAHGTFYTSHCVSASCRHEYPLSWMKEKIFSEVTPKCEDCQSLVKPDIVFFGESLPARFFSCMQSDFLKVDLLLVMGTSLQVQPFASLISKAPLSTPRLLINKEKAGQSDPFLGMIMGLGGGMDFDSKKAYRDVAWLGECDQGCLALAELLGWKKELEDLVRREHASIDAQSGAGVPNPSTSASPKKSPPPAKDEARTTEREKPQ

Plasmodium falciparum = assay: Antiplasmodial activity against Plasmodium falciparum W2 assessed as picogreen-DNA intercalation by microfluorimetric assay; type: functional, organism-based
[2] = Cytotoxicity against human NCI-H460 cells assessed as cell viability at 9 uM after 48 hrs by MTT assay; type: cell-based; conditions: read-out: Activity
[3] = Cytotoxicity against human NCI-H460 cells assessed as cell viability at 55 uM after 48 hrs by MTT assay; type: cell-based; conditions: read-out: Activity
[4] = target: T1, NAD-dependent protein deacetylase sirtuin-2 (Homo sapiens); assay: Inhibition of SIRT2 at 50 uM

Row | INH [1] [µM] | IC50 (Plasmodium falciparum) [µM] | inhibition [4] [%] | SMILES | viability at 48 h, 9 µM [2] [%] | viability at 48 h, 55 µM [3] [%]
1 | 0.176 |  |  | CCCCCCCCCCC[C@]1(CO)CCCC(=O)O[C@](CO)(CCCCCCCCCCC)CCCC(=O)O1 |  | 
2 |  | 19 | 30 | CCCCCCCCC[C@@]1(CO)CC[C@@H](C)C(=O)O[C@@](CO)(CCCCCCCCC)CC[C@@H](C)C(=O)O1 | 110 | 10
